# In ChEMBL document CHEMBL1156829 (Proc Natl Acad Sci U S A, 2008):
# Legend:
# Plasmodium falciparum [1] = assay: NOVARTIS: Inhibition of Plasmodium falciparum 3D7 (drug-susceptible) proliferation in erythrocyte-based infection assay; assay type: functional, organism-based; conditions: Plasmodium falciparum, 3D7
# Plasmodium falciparum [2] = assay: NOVARTIS: Inhibition of Plasmodium falciparum W2 (drug-resistant) proliferation in erythrocyte-based infection assay; assay type: functional, organism-based; conditions: Plasmodium falciparum, W2; read-out: EC50
# [3] = NOVARTIS: Cytotoxicity against human hepatocellular carcinoma cell line (Huh7); assay type: toxicity, cell-based, Huh-7; conditions: Huh7 cells (hepatocellular carcinoma cell line)
Compound,EC50 (Plasmodium falciparum [1]) [µM],EC50 (Plasmodium falciparum [2]) [µM],CC50 [3] [µM]
COc1ccc(-c2cc3c(nn2)-c2ccccc2C3=O)cc1,3.84,1.64,65.8
Cc1nc2ccc(Br)cc2c(O)c1CC(C)C,2.73,2.53,> 100
COC(=O)c1ccnn(-c2ccccc2)c1=O,> 1.69,0.319,12.9
CCCN(CCC)CCCNc1ccc(C(=O)Nc2ccc(C)c(F)c2)cc1[N+](=O)[O-],0.146,0.268,10.6
Cc1c(CN2CCC(N3CCC(C(=O)NC4CC4)CC3)CC2)[nH]c2c(Cl)cccc12,0.345,1.4,56.5
COc1ccc(C(=O)Nc2nonc2-c2ccc(OC)c(OC)c2)cc1Cl,1.79,2.54,> 100
CSc1nc(N)c2c3c(sc2n1)CCCC3,> 1.25,> 0.253,> 10
O=C(c1ccccc1F)N1CCN(Cc2ccccc2C(F)(F)F)CC1,0.511,2.47,> 100
O=C(NCc1ccccc1)c1cnc(NCCCn2ccnc2)nc1NCCc1ccccc1,0.205,0.32,12.8
CCN(CC)C(=O)N1CCN(c2ccc(Nc3ccnc4cc5ccccc5cc34)cc2)CC1,0.961,2.47,> 100
CC(C)CN(CC(=O)Nc1cc(C(C)(C)C)nn1-c1ccccc1)C(=O)COc1ccccc1,0.773,0.432,17.6
CCOc1ccc2[nH]c(=O)c(CN(CCN3CCCC3)C(=S)Nc3ccc(F)cc3)cc2c1,1.82,2.51,> 100
CN1CCN(Nc2ccnc3cc4ccccc4cc23)CC1,0.104,0.246,> 10
COc1ccc(C(=O)NCCc2ccc(C)cc2)cc1OC1CCN(C(C)=O)CC1,> 9.06,2.52,> 100
COc1ccccc1C=CC1=NC(=Cc2ccc(SC)cc2)C(=O)O1,2.04,2.51,> 100
CCN(c1ccccc1)S(=O)(=O)c1ccc(F)c(C(=O)Nc2c(C)cccc2C)c1,> 12.5,2.45,> 100
CCOc1ccc2nc(C)cc(Nc3ccc(C)c(Cl)c3)c2c1,0.24,0.348,13.6
COc1ccc(Nc2nc(Nc3ccc(OC)cc3)c3ccccc3n2)cc1,0.0573,0.0519,2.1
COc1ccc(-n2nc(C(=O)NCC(=O)NCCCN3CC(C)CC(C)C3)c3ccccc3c2=O)cc1Cl (stereo unspecified),> 7.36,1.87,76.4
COc1ccc(C2Nc3ccc(C(C)=O)cc3C3C=CCC32)cc1[N+](=O)[O-] (stereo unspecified),2.15,2.57,> 100
CCCCOc1ccc(C2C3CCCC=C3C(C#N)=C(N)C2(C#N)C#N)cc1 (stereo unspecified),3.47,1.48,57.7
Fc1ccc2[nH]c3c(N4CCN(C(c5ccccc5)c5ccccc5)CC4)ncnc3c2c1,0.438,0.378,14.8
COc1ccc(Nc2cc(C)nc(NCc3ccccc3)n2)cc1,0.151,0.427,16.7
Cc1ccc(S(=O)(=O)Nn2c(SCC(=O)NCCc3ccc(S(N)(=O)=O)cc3)nc3ccccc3c2=O)cc1,> 12.5,2.49,> 100
Cc1ccc(O)c(NC(=O)c2cnn3c(C(F)(F)F)cc(-c4ccc(Br)cc4)nc23)c1,7.45,2.48,> 100
COc1ccc(-n2c(SC)nc3sc4c(c3c2=O)CCN(Cc2ccccc2)C4)cc1,2.48,2.55,> 100

Compound,EC50 (Plasmodium falciparum [1]) [µM],EC50 (Plasmodium falciparum [2]) [µM],CC50 [3] [µM]
COc1cc(-c2nc(-c3ccc(Sc4ccccc4)cc3)c(-c3ccccc3)[nH]2)cc(OC)c1O,1.28,1.64,64.3
COc1ccc2nc3cc(Cl)ccc3c(NCCN(CCN)CCN)c2c1,0.808,0.254,> 10
CC(Oc1ccc(Cl)cc1Cl)c1nc(-c2ccc(NC(=O)c3cccs3)cc2)no1 (stereo unspecified),0.429,0.631,25.6
COc1ccc(Nc2ncnc3[nH]c(-c4cccc([N+](=O)[O-])c4)cc23)cc1,2.49,2.5,> 100
CN(CCCNc1ccnc2cc(Cl)ccc12)S(=O)(=O)c1cccc2cccnc12,0.188,0.249,> 10
CC1CC(N(C(=O)c2ccc(Cl)cc2Cl)c2ccccc2)c2ccccc2N1C(=O)c1ccc(Cl)cc1 (stereo unspecified),2.77,2.53,> 100
c1ccc(-c2cc(N3CCN(c4ccccn4)CC3)nc(-c3ccccn3)n2)nc1,0.0729,0.0767,3.03
CN(C)CCn1cnc2sc3c(c2c1=O)CCC(NCc1cccc(Cl)c1)C3 (stereo unspecified),0.748,0.479,18.9
CCCCC(CC)C(=O)N(C)CCCNc1ccnc2cc(Cl)ccc12 (stereo unspecified),0.514,0.233,> 9.26
COc1ccc([N+](=O)[O-])cc1NC(=O)C(C)Nc1ccc(N(C)C)cc1 (stereo unspecified),0.343,0.86,34.2
O=C(NCc1ccccc1)C(c1ccc(F)cc1)N(Cc1ccco1)C(=O)c1cnccn1 (stereo unspecified),> 8.94,2.52,> 100
COc1ccccc1CNC(=O)CCC1N=C2c3ccccc3N=C(SCC(=O)Nc3ccc(F)cc3)N2C1=O (stereo unspecified),5.29,2.51,> 100
Nc1cccc(C(=O)Nc2ccc(Oc3cccc(Oc4ccc(NC(=O)c5cccc(N)c5)cc4)c3)cc2)c1,> 12,2.55,> 100
CCOc1ccccc1C(=O)NC(Nc1sc2c(c1C(N)=O)CCCC2)(C(F)(F)F)C(F)(F)F,> 7.5,2.49,> 100
O=C1CSC(=NN=Cc2cccnc2)N1c1ccccc1,> 12.5,2.49,> 100
CCOc1ccc2nc(C)cc(Nc3ccc(Br)cc3)c2c1,0.114,0.182,7.29
COc1cc(OC)cc(C(=O)N(C)CCCNc2ccnc3cc(Cl)ccc23)c1,0.143,0.116,4.7
CCC(c1nc2ccccc2c(=O)n1-c1ccccc1OC)N(CCc1ccccc1)C(=O)c1ccc(F)cc1 (stereo unspecified),1.02,0.18,> 7.25
CCCC[C@@H](C)C(O)[C@H]1C(=O)N[C@@H](CC)C(=O)N(C)CC(=O)N(C)[C@@H](CC(C)C)C(=O)N[C@@H](C(C)C)C(=O)N(C)[C@@H](CC(C)C)C(=O)N[C@@H](C)C(=O)N[C@H](C)C(=O)N(C)[C@@H](CC(C)C)C(=O)N(C)[C@@H](CC(C)C)C(=O)N(C)[C@@H](C(C)C)C(=O)N1C (stereo partly specified),0.859,0.251,> 10
O=C(NCCN(CCNc1ccnc2cc(Cl)ccc12)CCNc1ccnc2cc(Cl)ccc12)C1CCC1,0.207,0.255,> 10
COC(=O)c1ccc(C2C3=C(O)CC(c4cccs4)CC3=Nc3ccccc3N2C(=O)c2ccccc2)cc1 (stereo unspecified),0.436,0.625,25
O=C(O)CC/C(=C1/C=C(c2ccc(Cl)cc2)NC1=O)c1ccc(Cl)cc1,> 1.65,0.256,> 10
Cc1cccn2c(NCc3ccccc3)c(-c3ccccc3OC(=O)CCCCl)nc12,0.781,0.253,> 10
O=C(NCCCNC(=O)Nc1cccc(C2=NCCN2)c1)Nc1cccc(C2=NCCN2)c1,0.326,0.256,> 10
C=CC1CN2CCC1CC2[C@@H](OC(=O)/C=C/c1ccc(Cl)cc1)c1ccnc2ccc(OC)cc12 (stereo partly specified),0.272,0.252,> 10
Cc1ccc(NC(=O)C2CC3c4ccccc4C2c2ccccc23)cc1 (stereo unspecified),> 12.5,2.55,> 100
